According to patent US20180049996A1, “THERAPEUTIC AGENT FOR CHRONIC RESPIRATORY DISEASE AND COMPOSITION FOR INHIBITING CARDIAC FIBROSIS” (NIPPON HYPOX LABORATORIES INCORPORATED, priority 2015, published 2018):

Experiments:
IL-5 = IL-5 level in BAL fluid (ELISA), ovalbumin asthma model; assay type: in vivo, BALB/c female mice; details: HTHQ 20 and 40 mg/kg/day oral; compared to OVA group
Description: (§1) 6 week old BALB/c female mice were purchased and the mice were divided into 5 groups with 5 animals per group shown in Table 3 below after habituation breeding of about 2 weeks.
(§2) The test was conducted on the schedule of sensitization, causing diseases and administration of test materials shown in FIG. 12. “IP” in FIG. 12 refers to ovalbumin sensitization treatment by the intraperitoneal administration of ovalbumin/aluminum hydroxide, and “IH” refers to inhalation exposure treatment of ovalbumin, and “PO” refers to the administration of the test materials. […]
(§3) All mice were euthanized by intraperitoneal injection of pentobarbital (Hanrimu pharmaceutical, South Korea) at 50 mg/kg and the bronchi were excised on day 25 of the test. […] After preparing slide samples from 100 μL of BAL cell fluid using Cytospin (4° C., 1000 rpm×5 min), the cell numbers of inflammatory cells (eosinophils, macrophages, lymphocytes and neutrophils) present in the BAL fluid were counted using a Diff-Quik stain kit.
(§4) The supernatant of the BAL fluid stored was taken out of the super-cryostat and IL-4, IL-5 and IL-13 levels were measured as the pro-inflammatory cytokine contents in the supernatant of the BAL fluid. A quantitative ELISA kit (a product from R&D systems) and a microplate reader (a product from Bio-Rad Laboratories, Inc.) were used for the measurement and the measurement wavelength was 450 nm.

ovalbumin-specific IgE = experiment: Content of ovalbumin-specific IgE in serum, ovalbumin asthma model; assay type: in vivo, BALB/c female mice; details: HTHQ 20 and 40 mg/kg/day oral; day 25; no significant difference
Description: as §1
The test was conducted on the schedule of sensitization, causing diseases and administration of test materials shown in FIG. 12. “IP” in FIG. 12 refers to ovalbumin sensitization treatment by the intraperitoneal administration of ovalbumin/aluminum hydroxide, and “IH” refers to inhalation exposure treatment of ovalbumin, and “PO” refers to the administration of the test materials. Specifically, 200 μL of PBS (pH 7.4) emulsified by the addition of 20 μg ovalbumin and 2 mg aluminum hydroxide as an adjuvant was intraperitoneally administered to all mice in 4 groups except the normal control group (the initial sensitization, day 1 of the test). Then, after 2 weeks (day 14 of the test), the second sensitization treatment was conducted in the same way as the initial sensitization. […]
On day 25 of the test, the total contents of IgE and contents of ovalbumin-specific IgE in serums were measured using blood collected from orbital sinuses of the mice. An ELISA kit for IgE measurement (a product from BioLegend, Inc.) was used for the measurement and the contents were measured at wavelength of 450 nm using a micro plate reader (a product from Bio-Rad Laboratories, Inc.).

[1] = test system: allergic asthma model of mice caused by ovalbumin sensitization; experiment: BAL inflammatory cell numbers, allergic asthma model caused by ovalbumin sensitization; assay type: in vivo, BALB/c female mice; details: HTHQ 20 and 40 mg/kg/day oral, days 18 to 23; day 25; compared to OVA group
Description: The efficacy of the hydroquinone derivative represented by the general formula (1) described above of the present invention on asthma was studied using an allergic asthma model of mice caused by ovalbumin sensitization.
as §1, §2, §3

[2] = test system: Creatine phosphokinase (CPK); experiment: Creatine phosphokinase (CPK) value in blood, myocardial disorder induced by doxorubicin; assay type: in vivo, female SD rats; details: Test group 2: doxorubicin + HTHQ 50 mg/kg; day 14; p<0.05
Description: Doxorubicin is used to produce disease-model animals of cardiomyopathy. The doxorubicin and 2,3,5-trimethylhydroquinone-1-hexyl ether (HTHQ) as the hydroquinone derivative represented by the general formula (1) described above of the present invention were simultaneously administered to female SD rats of 4 week old after birth to examine the effect of the action. The test groups consisted of the control group to which sterile saline was administered; test group 1 to which doxorubicin (13 mg/kg body weight) alone was administered; test group 2 to which doxorubicin (13 mg/kg body weight) and HTHQ (50 mg/kg body weight) were administered in combination; and test group 3 to which doxorubicin (13 mg/kg body weight), HTHQ (50 mg/kg body weight) and recombinant human erythropoietin (400 IU/kg body weight) were administered in combination. The recombinant human erythropoietin (rHuEPO) is mainly used in the treatment of renal anemia etc., and has the effect to protect myocardium. The test group 3 is used to confirm the presence or absence of the inhibitory effect brought about by combining HTHQ and rHuEPO on myocardial disorder.
Doxorubicin was orally administered in a single dose to the rats in test groups 1 to 3. […]

IL-4 = IL-4 level in BAL fluid (ELISA), ovalbumin asthma model; assay type: in vivo, BALB/c female mice; details: HTHQ 20 and 40 mg/kg/day oral; compared to OVA group
Description: as §1, §2, §3, §4

CCCCCCOc1cc(C)c(O)c(C)c1C [HTHQ, 2,3,5-trimethylhydroquinone-1-hexyl ether]
IL-5 content in BAL fluid (IL-5): significantly reduced | amount of ovalbumin-specific IgE in serum (ovalbumin-specific IgE): a declining trend was seen | inflammatory cell numbers in BAL fluid (eosinophils, macrophages, total) [1]: significantly reduced in an HTHQ dose-dependent manner | creatine phosphokinase (CPK) value [2]: significantly lower compared to that of test group 1 | IL-4 content in BAL fluid (IL-4): significantly reduced
